ChEMBL document CHEMBL1201862, “PubChem BioAssay data set” (2004)
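The compound was tested at five concentrations on cells cultured in 96-well plates, with a 48-hour exposure period. GI50 is the concentration that inhibits growth by half.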 The source made the active and inactive calls. Rule as the data show it: active = GI50 up to about 1.1 µM and inactive = higher.

What was measured:
Test in all cases: NCI-60 cell line screen, 48 h
HL-60 = test system: HL-60
SNB-75 = test system: SNB-75
SK-MEL-2 = test system: SK-MEL-2
HCT-15 = test system: HCT-15
SK-MEL-28 = test system: SK-MEL-28
UACC-62 = test system: UACC-62
NCI-H226 = test system: NCI-H226
SR = test system: SR
Malme-3M = test system: Malme-3M
TK-10 = test system: TK-10
MOLT-4 = test system: MOLT-4
NCI-H522 = test system: NCI-H522
SF-268 = test system: SF-268

Compound | GI50 (HL-60) | GI50 (SNB-75) | GI50 (SK-MEL-2) | GI50 (HCT-15) | GI50 (SK-MEL-28) | GI50 (UACC-62) | GI50 (NCI-H226) | GI50 (SR) | GI50 (Malme-3M) | GI50 (TK-10) | GI50 (MOLT-4) | GI50 (NCI-H522) | GI50 (SF-268)
c1ccc(-c2nnc3nn4c(-c5ccccc5)cnnc4c3c2-c2ccccc2)cc1 | 3.12 µM (inactive) | 34.4 µM (inactive) | > 100 µM (inactive) | > 100 µM | 64 µM (inactive) | 32.1 µM (inactive) | > 100 µM (inactive) | > 100 µM (inactive) | 42.5 µM (inactive) | 19.2 µM (inactive) | > 100 µM (inactive) |  | 
CCCc1nn(C)c(CCC(=O)N(Cc2ccccc2)Cc2ccccc2)c1CC | > 100 µM (inactive) | 47 µM (inactive) | > 100 µM (inactive) | > 100 µM | > 100 µM (inactive) | > 100 µM (inactive) | > 100 µM (inactive) |  | > 100 µM (inactive) | > 100 µM (inactive) |  | > 100 µM (inactive) | > 100 µM (inactive)
C1=CC2CCC1CN2CCC1CNc2ccccc21 (stereo unspecified) | > 100 µM (inactive) | > 100 µM (inactive) | > 100 µM (inactive) |  | > 100 µM (inactive) | > 100 µM (inactive) | > 100 µM (inactive) | > 100 µM (inactive) | > 100 µM (inactive) | > 100 µM (inactive) | > 100 µM (inactive) | > 100 µM (inactive) | > 100 µM (inactive)
COC(=O)/C=C1/CCC2[C@@H](C(=O)CC3[C@]2(C)CCC[C@@]3(C)C(=O)OC)C1C (stereo partly specified) | 2.61 µM (inactive) | 8.99 µM (inactive) | 16 µM (inactive) | 14 µM | 13.3 µM (inactive) | 10.7 µM (inactive) | 21.2 µM (inactive) |  | 16.1 µM (inactive) | 20 µM (inactive) | 4.04 µM (inactive) | 5.07 µM (inactive) | 15 µM (inactive)
Cc1cc(O)nc(NNC(C#N)c2ccccc2O)n1 (stereo unspecified) | 3.72 µM (inactive) | 31.5 µM (inactive) | 66.8 µM (inactive) | 11.9 µM | 36.3 µM (inactive) | 21.7 µM (inactive) | 31.1 µM (inactive) | 4.3 µM (inactive) | 35.7 µM (inactive) | 61 µM (inactive) | 24.6 µM (inactive) | 41.4 µM (inactive) | 13 µM (inactive)
COc1cc2c(c(OC)c1OC)-c1ccc(SC)c(=O)cc1C(CC(=O)Oc1cccc(F)c1)C2 (stereo unspecified) | 0.0906 µM (active) | 0.138 µM (active) | 0.397 µM (active) | 0.22 µM | 0.621 µM (active) | 0.111 µM (active) | 0.184 µM (active) | 0.0542 µM (active) | 0.267 µM (active) | 61.7 µM (inactive) | 0.444 µM (active) | 0.102 µM (active) | 0.653 µM (active)
COc1ccc(/C=N/N=C(\N)NO)cc1OC | 63.1 µM (inactive) | 42.9 µM (inactive) | 58.5 µM (inactive) | 75.2 µM | > 100 µM (inactive) | 23.3 µM (inactive) | 28.1 µM (inactive) | 24.9 µM (inactive) | 75.2 µM (inactive) | 56.4 µM (inactive) | > 100 µM (inactive) | 26.3 µM (inactive) | 20.4 µM (inactive)
COC(=O)C1=C(c2ccc(OC)c(OC)c2)OC(c2ccc(OC)c(OC)c2)C1 (stereo unspecified) | 9.82 µM (inactive) | 41.4 µM (inactive) | 57.9 µM (inactive) | 25.2 µM | 45.1 µM (inactive) | 35.6 µM (inactive) | 37 µM (inactive) | 18.5 µM (inactive) | 30 µM (inactive) | 43.2 µM (inactive) | 8.17 µM (inactive) |  | 35.6 µM (inactive)
COc1ccc(-c2cc(=O)c3c(O)cc(O)cc3o2)c(OC)c1OC | 10.1 µM (inactive) | 38.3 µM (inactive) | > 100 µM (inactive) |  | 94.2 µM (inactive) | 97.1 µM (inactive) | > 100 µM (inactive) |  | > 100 µM (inactive) | > 100 µM (inactive) |  | 52.1 µM (inactive) | 85.3 µM (inactive)
CCN(CC)c1ccc2c(c1)N=C1N=CC=CN1C2(c1ccc(N(C)C)cc1)c1ccc(N(C)C)cc1 | 1.43 µM (inactive) | 11.6 µM (inactive) | 12.6 µM (inactive) | 10.9 µM | 10.8 µM (inactive) | 10.7 µM (inactive) | 10.8 µM (inactive) | 3.61 µM (inactive) | 12.7 µM (inactive) | 13 µM (inactive) | 2.47 µM (inactive) | 1.74 µM (inactive) | 11 µM (inactive)
CS(=O)(=O)c1ccc(COP(N)(=O)N(CCCl)CCCl)cc1 (stereo unspecified) |  | > 100 µM (inactive) | > 100 µM (inactive) | > 100 µM | > 100 µM (inactive) | > 100 µM (inactive) | > 100 µM (inactive) | > 100 µM (inactive) | > 100 µM (inactive) | > 100 µM (inactive) | > 100 µM (inactive) | > 100 µM (inactive) | > 100 µM (inactive)
O=C(N/C(=C\c1cccc([N+](=O)[O-])c1)c1nc2cc([N+](=O)[O-])ccc2[nH]1)c1ccccc1 |  |  | 24.3 µM (inactive) | 22.1 µM | 36.9 µM (inactive) | 19.7 µM (inactive) |  | 17.1 µM (inactive) | 48.2 µM (inactive) | 93.3 µM (inactive) | 12.2 µM (inactive) | 18.3 µM (inactive) | 19.7 µM (inactive)
O=[N+]([O-])/C=C/c1ccc(Cl)cc1Cl | 5.26 µM (inactive) | 20.4 µM (inactive) | 20.3 µM (inactive) | 15 µM | 14.9 µM (inactive) | 15.7 µM (inactive) | 17.6 µM (inactive) | 11.4 µM (inactive) | 17.8 µM (inactive) | > 10 µM (inactive) | 15.8 µM (inactive) | 14.6 µM (inactive) | 21.3 µM (inactive)
CN1C(=O)C(Cl)(C(Cl)(Cl)S(=O)(=O)O)C(=O)c2ccccc21.c1ccncc1 (stereo unspecified) | > 100 µM (inactive) | 54.2 µM (inactive) |  |  | > 100 µM (inactive) | > 100 µM (inactive) | 33.7 µM (inactive) | > 100 µM (inactive) | 33.2 µM (inactive) | > 100 µM (inactive) | > 100 µM (inactive) | 44.9 µM (inactive) | > 100 µM (inactive)
O=C1[C@@H]2C3SC(c4ccccc43)[C@@H]2C(=O)N1c1ccccc1 | > 100 µM (inactive) | 28.6 µM (inactive) | > 100 µM (inactive) | > 100 µM | > 100 µM (inactive) | > 100 µM (inactive) | > 100 µM (inactive) | > 100 µM (inactive) | > 100 µM (inactive) | 97.1 µM (inactive) | > 100 µM (inactive) | > 100 µM (inactive) | > 95.1 µM (inactive)
COC[C@@H](/N=C/N1CCc2cc(OC)c(OC)cc2C1)C(C)(C)C | > 100 µM (inactive) | > 100 µM (inactive) |  | > 100 µM | > 100 µM (inactive) | > 100 µM (inactive) | > 100 µM (inactive) | > 100 µM (inactive) | > 100 µM (inactive) | > 100 µM (inactive) | > 100 µM (inactive) | > 100 µM (inactive) | > 100 µM (inactive)
